# Measured values reported in patent publication US20170173008A1, “ANTIMICROBIAL AGENTS AND SCREENING METHODS” (PRESIDENT AND FELLOWS OF HARVARD COLLEGE, priority 2014, published 2017).
# Entries after “also recorded” stand apart in the source; their conditions may differ. Read-outs that look alike come from different tables or passages of the source.
# Key:
# [1] = test system: M. tuberculosis H37Rv; experiment: M. tuberculosis H37Rv growth inhibition (Alamar Blue MIC); format: cell-based, Mycobacterium tuberculosis; settings: three different media
# [2] = target: T1, mouse VKORc1 (Mus musculus, UniProt Q9CRC0); experiment: Assay for VKOR enzymatic activity in mouse liver microsomes; format: biochemical
# T1 construct: Solubilized mouse liver microsomes (20 μL) were added to 180 μL of buffer; from tissue; host or cells: mouse liver (solubilized microsomes)
# T1 sequence (Q9CRC0 1-161): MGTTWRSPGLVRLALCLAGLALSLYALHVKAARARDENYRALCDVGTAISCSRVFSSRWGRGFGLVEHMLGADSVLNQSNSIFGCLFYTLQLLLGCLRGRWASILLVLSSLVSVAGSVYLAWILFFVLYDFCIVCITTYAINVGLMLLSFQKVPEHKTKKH
# [3] = target: T2, PDI (Homo sapiens, UniProt P07237); experiment: Insulin reductase activity assay, PDI; format: biochemical
# T2 construct: His; purchased Prospec, East Brunswick, N.J
# [4] = target: T3, Erp5 (Homo sapiens, UniProt Q15084); experiment: Insulin reductase activity assay, Erp5; format: biochemical
# T3 construct: His; Passam F., Furie B., Furie B.C; (persons named as the source, not a vendor)
# T3 sequence (Q15084 20-440): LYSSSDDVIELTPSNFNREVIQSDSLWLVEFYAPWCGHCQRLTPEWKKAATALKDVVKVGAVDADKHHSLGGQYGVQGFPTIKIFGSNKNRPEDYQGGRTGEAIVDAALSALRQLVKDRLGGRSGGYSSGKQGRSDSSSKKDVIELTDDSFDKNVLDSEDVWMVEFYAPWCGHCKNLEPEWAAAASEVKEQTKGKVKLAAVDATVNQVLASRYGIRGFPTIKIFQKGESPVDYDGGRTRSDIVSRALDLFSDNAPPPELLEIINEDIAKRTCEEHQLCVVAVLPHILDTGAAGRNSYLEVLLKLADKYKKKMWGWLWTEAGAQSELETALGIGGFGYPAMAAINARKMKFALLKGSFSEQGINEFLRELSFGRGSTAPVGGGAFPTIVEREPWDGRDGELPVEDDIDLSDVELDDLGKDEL
# [5] = target: T4, Erp57 (Homo sapiens, UniProt P30101); experiment: Insulin reductase activity assay, Erp57; format: biochemical
# T4 construct: His; purchased AbCam, Cambridge, Mass
# T4 sequence (P30101 25-505): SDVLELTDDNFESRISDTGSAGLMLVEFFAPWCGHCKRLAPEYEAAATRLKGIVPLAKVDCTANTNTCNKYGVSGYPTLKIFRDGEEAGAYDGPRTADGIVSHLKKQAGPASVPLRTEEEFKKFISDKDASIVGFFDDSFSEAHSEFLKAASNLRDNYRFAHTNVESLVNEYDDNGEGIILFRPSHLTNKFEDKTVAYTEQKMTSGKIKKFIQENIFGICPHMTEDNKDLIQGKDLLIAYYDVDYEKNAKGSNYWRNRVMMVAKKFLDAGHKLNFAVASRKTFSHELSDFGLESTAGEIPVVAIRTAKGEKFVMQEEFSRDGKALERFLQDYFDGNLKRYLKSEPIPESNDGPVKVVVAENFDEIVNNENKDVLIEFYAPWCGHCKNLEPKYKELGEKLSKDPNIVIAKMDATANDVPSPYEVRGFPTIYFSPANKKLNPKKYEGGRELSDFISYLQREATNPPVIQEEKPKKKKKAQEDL
# [6] = target: T5, Erp72 (Homo sapiens, UniProt P13667); experiment: Insulin reductase activity assay, Erp72; format: biochemical
# T5 construct: His; purchased Enzo, Farmingdale, N.Y
# T5 sequence (P13667 21-645): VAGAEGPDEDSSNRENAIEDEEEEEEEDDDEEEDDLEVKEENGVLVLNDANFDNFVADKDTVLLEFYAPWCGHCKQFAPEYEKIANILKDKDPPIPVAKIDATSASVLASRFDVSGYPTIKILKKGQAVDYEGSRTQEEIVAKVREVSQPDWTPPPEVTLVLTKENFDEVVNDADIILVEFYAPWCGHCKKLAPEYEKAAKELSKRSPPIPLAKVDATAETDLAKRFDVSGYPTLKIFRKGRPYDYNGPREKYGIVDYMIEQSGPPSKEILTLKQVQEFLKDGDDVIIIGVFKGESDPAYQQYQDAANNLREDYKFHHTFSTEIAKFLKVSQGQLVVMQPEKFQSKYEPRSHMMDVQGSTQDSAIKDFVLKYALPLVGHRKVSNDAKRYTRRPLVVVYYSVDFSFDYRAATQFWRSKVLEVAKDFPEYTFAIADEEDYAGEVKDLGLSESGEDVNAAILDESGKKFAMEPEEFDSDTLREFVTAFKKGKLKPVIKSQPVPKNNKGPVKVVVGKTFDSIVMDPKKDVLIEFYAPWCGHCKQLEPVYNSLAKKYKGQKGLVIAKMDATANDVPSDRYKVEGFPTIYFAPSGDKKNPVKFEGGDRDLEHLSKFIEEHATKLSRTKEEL
# [7] = target: E. coli DsbB (Escherichia coli, UniProt P0A6M2); experiment: Blue/white beta-galactosidase agar assay, DsbB-based E. coli strain; format: cell-based; settings: for MIC for blue color appearance / minimal inhibitory concentration of DsbB: β-galactosidase agar media assay
# [8] = test system: RcsF, a substrate of DsbA; experiment: Disulfide bond formation in RcsF in growing E. coli liquid culture; format: cell-based; settings: liquid minimal medium
# [9] = target: T6, purified EcDsbB (Escherichia coli, UniProt P0A6M2, C49V/C8A); experiment: In vitro assay of purified DsbB (ubiquinone reduction); format: biochemical, E. coli
# T6 construct: made in house; host or cells: E. coli
# Text: In addition to the in vivo assays of MICs, we have purified DsbB from E. coli and assessed the concentration dependence for inhibition of the enzyme's activity in oxidizing DsbA.
# In this assay, we determine the concentration of a compound necessary to reduce the activity of purified DsbB enzyme by 50%. DsbB uses ubiquinone as a co-factor for the generation of disulfide bonds. DsbB oxidizes DsbA and reduces ubiquinone. When it is in the oxidized state, ubiquinone absorbs strongly at 275 nm but it has a diminished absorbance when it is in the reduced state at the same wavelength. Therefore, DsbB activity can be measured by the reduction of ubiquinone and this is assessed by following the decrease of absorbance of ubiquinone at 275 nm. The assay uses 20 μM purified and DTT-reduced DsbA, 20 uM UbQ-5, and 2 nM purified DsbB at pH6.0.
# We tested several compounds for their inhibitory effect on EcDsbB-mediated ubiquinone reduction using purified enzymes. In this assay, reduced DsbA provides the source of electrons that are used by EcDsbB to reduce ubiquinone-5. The compounds show dose-dependent inhibition of EcDsbB with half-maximal inhibitory concentrations (IC50) in the low-μM range.
# [10] = target: T7, DsbB (Escherichia coli, UniProt P0A6M2, C49V/C8A); experiment: cell-based; format: cell-based, E. coli; settings: for EC50 RATIO (EC50 compound 16/EC50): E. coli DHB7935, liquid media
# T7 construct: expressed in transfected cells; host or cells: E. coli DHB7935 (HK295 ΔdsbB λatt::malF-lacZ102, φ80::pDSW206dsbBhis6-c-myc)
# [11] = target: DsbB (Escherichia coli, UniProt P0A6M2); experiment: Oxidation of DsbA by DsbB in growing E. coli (in vivo alkylation assay); settings: liquid minimal medium
# Method: Second, we measured MICs of the strongest inhibitors in terms of their effects on the oxidation of DsbA by DsbB and on the inhibition of disulfide bond formation in growing liquid cultures. […] The oxidation of DsbA was assessed by a standard alkylation assay for free cysteines in DsbA.
# The in vivo chemical alkylation procedure was done as described previously (Chng S et al. Science 337, 1665-1668 (2012)). […] A 500 μl culture aliquot was then transferred to a 1.5 ml tube and precipitated with 50 μl of trichloroacetic acid (TCA, 100%, Mallinckrodt Baker). The mixture was incubated on ice for 10 min and precipitated proteins were pelleted at 18 000 g for 10 min. The protein pellet was washed with 600 μl ice-cold acetone and incubated on ice for 10 min. The protein was re-pelleted by centrifugation at 18 000 g for 3 min and left to air-dry at room temperature. The TCA-precipitated proteins were either directly subjected to alkylation or first reduced before alkylation. For reduction, proteins were incubated in 100 μl 100 mM Tris HCl, pH 8.0 containing 0.1% SDS and 100 mM dithiothreitol (DTT, Invitrogen) for 30 min at room temperature. M63 (500 μl) medium was added and the reduced proteins were re-precipitated with TCA and further washed with acetone. […]
# [12] = target: T8, VKOR of M. tuberculosis (Mycobacterium tuberculosis, UniProt I6X5W1); format: cell-based; settings: agar assay
# T8 sequence (I6X5W1 1-210): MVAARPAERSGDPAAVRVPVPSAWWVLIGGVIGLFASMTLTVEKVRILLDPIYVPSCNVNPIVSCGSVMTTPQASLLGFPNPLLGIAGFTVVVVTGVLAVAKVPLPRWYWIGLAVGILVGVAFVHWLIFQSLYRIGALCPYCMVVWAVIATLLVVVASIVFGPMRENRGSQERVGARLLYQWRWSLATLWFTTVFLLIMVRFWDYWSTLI
# [13] = test system: DsbBs from other gram-negative pathogens; format: cell-based; settings: agar assay, 384-well plates
# [14] = target: T9, DsbB-DsbAC33A dimer (Escherichia coli, UniProt P0A6M2, C49V/C8A); experiment: Mass spectrometry of DsbB-DsbAC33A complex treated with compound; format: binding, E. coli
# T9 construct: made in house
# Method: Since the theoretical molecular weight of compound 16.6 is 289.54 Da, the 35.9-Da mass loss may represent a leaving chloride ion. This mass adduct was not observed when either DsbB (oxidized), DsbA (reduced) or DsbAC33A, alone was treated with the compound (FIG. 7C).
# T7 sequence (P0A6M2 whole entry C8A/C49V): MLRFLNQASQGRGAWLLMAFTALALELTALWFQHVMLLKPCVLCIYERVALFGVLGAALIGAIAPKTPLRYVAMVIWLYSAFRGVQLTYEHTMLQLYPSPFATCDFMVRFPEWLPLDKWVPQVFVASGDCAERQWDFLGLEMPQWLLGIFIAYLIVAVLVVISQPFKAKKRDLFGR
# T6 sequence (P0A6M2 whole entry C8A/C49V): as above
# Sequence of E. coli DsbB (P0A6M2 whole entry): as the sequence (P0A6M2 whole entry C8A/C49V) above, with A8C, V49C counted along it
# T9 sequence (P0A6M2 whole entry C8A/C49V): as the sequence (P0A6M2 whole entry C8A/C49V) above
# Sequence of DsbB (Escherichia coli, UniProt P0A6M2) (P0A6M2 whole entry): as the sequence (P0A6M2 whole entry C8A/C49V) above, with A8C, V49C counted along it
# T2 sequence (P07237 18-508, species assumed): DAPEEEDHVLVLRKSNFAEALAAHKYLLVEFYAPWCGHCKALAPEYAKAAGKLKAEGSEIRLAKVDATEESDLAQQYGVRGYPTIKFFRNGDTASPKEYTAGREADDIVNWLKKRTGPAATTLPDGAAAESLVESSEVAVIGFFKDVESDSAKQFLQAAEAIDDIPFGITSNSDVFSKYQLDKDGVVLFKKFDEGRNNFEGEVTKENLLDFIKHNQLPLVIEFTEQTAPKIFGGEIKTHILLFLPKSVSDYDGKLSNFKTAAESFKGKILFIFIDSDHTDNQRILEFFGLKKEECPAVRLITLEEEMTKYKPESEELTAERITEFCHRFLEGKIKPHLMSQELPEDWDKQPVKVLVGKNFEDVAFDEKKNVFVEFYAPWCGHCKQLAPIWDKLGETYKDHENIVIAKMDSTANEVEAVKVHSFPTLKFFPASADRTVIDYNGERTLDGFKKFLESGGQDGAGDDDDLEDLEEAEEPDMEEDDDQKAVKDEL
SMILES,effect on growth of M. tuberculosis (in words) [1],inhibition of VKOR activity [2],inhibition of PDI activity [3],inhibition of Erp5 activity [4],inhibition of Erp57 activity [5],inhibition of Erp72 activity [6],MIC for blue color appearance / minimal inhibitory concentration of DsbB [7],"MIC, disulfide bond formation in RcsF [8]","IC50 ([9]; IC50 (μM), Table 9)","IC50 ([9]; IC50, purified DsbB)",EC50 [10],EC50 RATIO (EC50 compound 16/EC50) [10],"MIC, oxidation of DsbA by DsbB [11]",concentration up to which no inhibition of VKOR was observed [12],difference between inhibition of DsbB and of VKOR ([7]; MIC DsbB versus highest concentration without VKOR inhibition),"IC50 ([9]; in vitro assay, read-out: IC50)",fold more inhibitory than compound 16 [10],"inhibition of DsbBs of other gram-negative bacteria expressed in E. coli, in words [13]","adduct on Cys44 of DsbB ([14]; high-resolution tandem mass spectrometry, chymotrypsin digest)",adduct with the DsbB-DsbAC33A dimer ([14]; ion-trap mass spectrometry)
CNC(=O)C#CCC1C(=O)c2ccccc2C1=O [Compound 1],relatively strong effect in only one of the three media,inhibited,inhibited,inhibited,inhibited,inhibited,–,–,–,–,–,–,–,–,–,–,–,–,–,–
O=c1c(Cl)c(Cl)cnn1Cc1ccccc1 [Compound 16],–,–,–,–,–,–,5.7 µM,100 µM,1.86 µM,1.85 µM,5.1 µM,1.00,5 µM,–,–,–,–,–,–,–
O=c1c(Cl)c(Cl)cnn1Cc1ccccc1Cl [Compound 16.6],–,–,–,–,–,–,0.53 µM,–,–,–,0.16 µM,23.03,0.7 µM,> 50 µM,equal to or greater than two orders of magnitude,0.0189 µM,23 fold,most effective inhibitor; also recorded: one of the most effective inhibitors,252.995 Da,253.6 Da
